Where a SMILES comes first, the peptide text is derived from it. Where no end group is shown, it is not given here. The star is where a group is joined. AMC = Cc1cc(=O)oc2cc(N*)ccc12; βNA = c1ccc2cc(N*)ccc2c1
Columns and labels:
[1] = molecular target: E433A variant of PgDPP III (Porphyromonas gingivalis, UniProt Q7MX92, E433A); assay: biochemical; type: binding
[2] = test system: PgDPP III; assay: Substrate specificity for PgDPP III, dipeptidyl-2NA substrates; type: biochemical, Porphyromonas gingivalis; details: for Relative hydrolysis rate: standard colorimetric assay, 37°C, pH 8.0, 50 mM Tris-HCl (I = 0.01), 100 μM CoCl2, Arg-Arg-2NA listed as 100; for substrate preference / hydrolysis rate (in words): dipeptidyl-2NA substrates
Experimental: DPP III activity was determined by a standard colorimetric assay described previously using Arg-Arg-2-naphthylamide (Arg2-2NA) and Arg-Arg-7-amido-4-methylcoumarin (Arg2-AMC) as substrates, at 37°C and pH 8.0, in 50 mM Tris-HCl buffer (I = 0.01) containing 100 μM CoCl2. […] The kinetic parameters were determined from the initial reaction rates, using a nonlinear regression program (GraphPad Prism version 5.04; GraphPad, La Jolla, CA, USA).
Cloning, expression, and purification of the recombinant proteins was performed as described in the Materials and methods section. Enzyme activity was assayed using a set of synthetic dipeptide-2-naphthylamide substrates as described previously. Full-length PgDPP III and the DPP III fragment (a. acids 1–679) were purified to apparent homogeneity according to SDS-PAGE, with estimated molecular weights of 102000 and 78000, respectively, which was in agreement with their predicted molecular masses (Fig 1A). We cloned and attempted to express three C-terminal fragments of different sizes. Only one (amino acids 648–886) was detected on SDS-PAGE. However, it could not be purified as all expressed protein was in insoluble inclusion bodies. This problem was not solved by attempts to yield soluble protein by refolding from inclusion bodies.

[3] = test system: Full length PgDPP III (1–886 aa); type: biochemical, Porphyromonas gingivalis; details: for kcat/Km: full length, pH 8.0, 100 μM CoCl2, enzyme 0.5–1 nM; for kcat/Km of PgDPP III, fold lower than human DPP III: human DPP III data ref 70
[4] = test system: DPP III fragment (1–679 aa); assay: Kinetic analysis / specific activity of the DPP III fragment; type: biochemical, Porphyromonas gingivalis; details: for kcat/Km: DPP III fragment, pH 8.0, 100 μM CoCl2, enzyme 40–100 nM; for kcat/Km / Km / kcat: 26°C; for Km / kcat: fluorimetric, pH 8.0 Tris-HCl (ionic strength 0.01M), 100 μM CoCl2, enzyme 40–100 nM, mean of at least two independent experiments ± SD
[5] = test system: gingipain null-mutant KDP136 cells; details: compared to wild-type P. gingivalis ATCC 33277; cited from earlier work
Source text: (§1) Dipeptidyl peptidases of P. gingivalis have been the subject of extensive research because these exopeptidases liberate dipeptides from the amino-end of their natural substrates, and P. gingivalis is known to utilize dipeptides preferentially, instead of free amino acids, as the source of energy. Until now, beside DPP IV, which is a proven virulence factor, three other DPPs were reported: DPP5, DPP7 and DPP11 [67–69]. They are all serine peptidases, localized in the periplasm, but differ in their substrate specificity.

[6] = test system: putative DPP III from P. gingivalis strain ATCC 33277; details: recombinant protein of gene PGN_1645; cited from earlier work
Source text: as §1

[7] = fluorimetric, 26°C, pH 8.0 Tris-HCl (ionic strength 0.01M), 100 μM CoCl2, enzyme 0.5–1 nM, mean of at least two independent experiments ± SD
[8] = DPP III fragment vs full length PgDPP III
[9] = Arg2-2NA, yeast enzyme data ref 70

Chain of E433A variant of PgDPP III (Q7MX92 whole entry E433A): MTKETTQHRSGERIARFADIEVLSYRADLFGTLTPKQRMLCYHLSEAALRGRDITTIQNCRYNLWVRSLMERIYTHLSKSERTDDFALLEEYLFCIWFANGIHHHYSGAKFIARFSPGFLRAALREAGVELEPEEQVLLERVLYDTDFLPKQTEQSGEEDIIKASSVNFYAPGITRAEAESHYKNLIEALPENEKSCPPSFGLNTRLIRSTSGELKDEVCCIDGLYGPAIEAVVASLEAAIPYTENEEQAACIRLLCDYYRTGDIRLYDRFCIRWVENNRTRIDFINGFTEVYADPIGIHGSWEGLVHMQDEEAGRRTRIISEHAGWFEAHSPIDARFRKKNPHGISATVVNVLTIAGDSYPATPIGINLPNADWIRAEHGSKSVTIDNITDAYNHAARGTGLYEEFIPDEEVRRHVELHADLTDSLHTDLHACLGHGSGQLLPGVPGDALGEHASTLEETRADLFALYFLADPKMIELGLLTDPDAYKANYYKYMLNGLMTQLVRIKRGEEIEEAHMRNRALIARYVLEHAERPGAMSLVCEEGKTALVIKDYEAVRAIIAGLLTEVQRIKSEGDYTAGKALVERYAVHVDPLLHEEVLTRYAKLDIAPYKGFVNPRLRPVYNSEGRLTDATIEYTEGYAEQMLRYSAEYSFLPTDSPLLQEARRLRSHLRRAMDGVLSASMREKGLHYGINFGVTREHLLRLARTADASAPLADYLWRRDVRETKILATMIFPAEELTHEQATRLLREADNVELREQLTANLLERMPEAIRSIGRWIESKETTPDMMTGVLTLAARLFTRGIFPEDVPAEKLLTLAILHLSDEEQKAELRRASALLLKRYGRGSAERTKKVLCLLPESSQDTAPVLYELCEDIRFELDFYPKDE

| Compound | Kd [1] | Relative hydrolysis rate [2] | kcat [3, 7] | kcat/Km ([3]; 26°C) | kcat/Km of PgDPP III, fold lower than human DPP III [3] | Km increase when C-terminal domain was removed [4, 8] | reduction in catalytic efficiency when C-terminal domain was removed [4, 8] | kcat/Km [4] | Km [4] | kcat [4] | other results |
| --- | --- | --- | --- | --- | --- | --- | --- | --- | --- | --- | --- |
| CC[C@H](C)[C@H](N)C(=O)N[C@H](C(=O)N[C@@H](Cc1ccc(O)cc1)C(=O)N1CCC[C@H]1C(=O)N[C@@H](Cc1c[nH]c2ccccc12)C(=O)O)C(C)C [IVYPW] | 9.35 ± 0.73 µM | – | – | – | – | – | – | – | – | – | – |
| NC(N)=NCCCC(NC(=O)c1ccccc1)C(=O)Nc1ccc2ccccc2c1 (stereo not shown) [BANA] | – | 0% | – | – | – | – | – | – | – | – | – |
| Cc1cc(=O)oc2cc(NC(=O)[C@H](CCCNC(=N)N)NC(=O)[C@@H](N)CCCNC(=N)N)ccc12 [Arg-Arg-AMC, Arg-Arg-7-amido-4-methylcoumarin] (H-Arg-Arg-{AMC}) | – | – | 0.29 ± 0.11 s⁻¹ | 113280 M⁻¹ s⁻¹ | 26 fold | 4 fold | 470 fold | 241 M⁻¹ s⁻¹ | 9.97 ± 0.44 µM | 0.0024 ± 0.0014 s⁻¹ | kcat reduction when C-terminal domain was removed [4, 8]: 120 fold; hydrolysis by mutant cells (in words) [5]: defects in Arg-Arg-AMC hydrolysis; activity among dipeptidyl-AMC substrates (in words) [6]: highest activity |
| VVYPW [tynorphin] | 7.3 ± 0.83 µM | – | – | – | – | – | – | – | – | – | – |
| N=C(N)NCCC[C@H](NC(=O)[C@@H](N)CCCNC(=N)N)C(=O)Nc1ccc2ccccc2c1 [Arg-Arg-2NA, Arg-Arg-2-naphthylamide] (H-Arg-Arg-βNA) | – | 100% | 0.75 ± 0.13 s⁻¹ | 773200 M⁻¹ s⁻¹ | 12 fold | 4 fold | 1050 fold | 732 M⁻¹ s⁻¹ | 4.37 ± 0.42 µM | 0.0032 ± 0.0005 s⁻¹ | Km decrease, PgDPP III vs yeast counterpart [3, 9]: 12 fold; kcat increase, PgDPP III vs yeast counterpart [3, 9]: 4.2 fold; kcat/Km of full-length PgDPP III, fold higher than yeast counterpart [3, 9]: 50 fold; Km and kcat compared to B. thetaiotaomicron DPP III (in words) ([3]; BtDPP III data ref 24): similarities in Km and kcat values; Km [3, 7]: 0.97 ± 0.16 µM; catalytic efficiency, Arg-Arg-2NA fold higher than Arg-Arg-AMC ([3]; full length PgDPP III): 6.8 fold; kcat, Arg-Arg-2NA fold higher than Arg-Arg-AMC ([3]; full length PgDPP III): 2.6 fold; specific activity of DPP III fragment, fold lower than full-length protein ([4]; hydrolysis of Arg2-2NA, vs full-length PgDPP III): 250 fold; substrate preference / hydrolysis rate (in words) ([2]; listed as Arg2-2NA): preference for Arg2-2NA; substrate preference / hydrolysis rate (in words) ([2]; listed as diarginyl-2NA): PgDPP III prefers diarginyl-2NA |
| CC[C@H](C)[C@H](NC(=O)[C@H](Cc1ccc(O)cc1)NC(=O)[C@@H](NC(=O)[C@H](CCCNC(=N)N)NC(=O)[C@@H](N)CC(=O)O)C(C)C)C(=O)N[C@@H](Cc1cnc[nH]1)C(=O)N1CCC[C@H]1C(=O)N[C@@H](Cc1ccccc1)C(=O)O [angiotensin II] | 0.9 ± 0.12 µM | – | – | – | – | – | – | – | – | – | – |

Reference: PMC5708649, “A novel Porphyromonas gingivalis enzyme: An atypical dipeptidyl peptidase III with an ARM repeat domain” (PLoS ONE, 2017)
